The record followed here is patent US9073876B2, “Flap modulators” (JANSSEN PHARMACEUTICA NV, priority 2013, dated 2015).

Counter-ions that a name gives are not always drawn.

For one test, the target named is human FLAP (Homo sapiens (Human), UniProt P20292). Nature of the test: FLAP binding assay (HTRF). To be noted: human FLAP-containing membranes, HTRF format; average of two assay plates, duplicates; read-out: FLAP Binding wild type HTRF Ki. The method in brief:
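HTRF ratio read-out; two independent plates, samples in duplicate on each, values averaged across plates.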
For orientation: In TR-FRET formats the signal depends on donor and acceptor labels being close together.

For test [1], the system named is leukotriene pathway in human whole blood (LTB4 levels). Nature of the test: Human whole blood assay (LTB4). Format: cell-based. The following applies: human whole blood diluted 1:1 in RPMI, stimulated with calcium ionophore A23187; single replicate. As for the experimental part:
The ability of the compounds of the present invention to treat a FLAP-mediated disease and/or disorder, or associated symptoms or complications thereof, was determined using the following procedures. Binding assay data represent the average value obtained from two different assay plates, with samples run in duplicate on each plate. Human whole blood assay data represent a single replicate on an assay plate using whole blood from at least one healthy donor.
An in vitro cellular assay was performed using human whole blood collected in heparin-containing tubes, which was used to test the ability of compounds to modulate the leukotriene pathway in human whole blood. The blood was diluted 1:1 in RPMI medium, pre-incubated for 15 min at 37° Celsius with test compounds at various concentrations, and then stimulated with calcium ionophore, A23187 (7 μg/mL), for 30 min at 37° Celsius. The samples were then centrifuged and plasma was removed. The plasma was diluted in assay buffer and LTB4 levels were measured using a commercial kit (Enzo Life Sciences). The concentration of each compound that was required for half-maximal inhibition (modulation) of recombinant enzyme activity (IC50) was calculated by a 4-parameter equation using the program GraphPad Prism (GraphPad software).

For orientation: Ki means a dissociation constant, usually derived from enzyme kinetics or from competition with a known ligand. As a reminder, the IC50 is the concentration needed to halve the response being measured.

human FLAP, sequence (P20292 whole entry): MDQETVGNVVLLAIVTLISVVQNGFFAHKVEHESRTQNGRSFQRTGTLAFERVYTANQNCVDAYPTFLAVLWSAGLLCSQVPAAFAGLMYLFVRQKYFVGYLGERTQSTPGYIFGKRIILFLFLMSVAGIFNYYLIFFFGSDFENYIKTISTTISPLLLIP

On to `Nc1cnc(-c2ccc(C3CCC3)c(Oc3ccc(C(=O)O)cc3)c2F)cn1` [Example 153, 4-[3-(5-Aminopyrazin-2-yl)-6-cyclobutyl-2-fluorophenoxy]benzoic acid], for which the Ki at human FLAP stood at 0.0023 µM. The IC50 in test [1] was 0.424 µM.

`Nc1cnc(-c2ccc(C3CCC3)c(OCc3ccncc3)c2F)cn1` [Example 14, 5-[4-Cyclobutyl-2-fluoro-3-(pyridin-4-ylmethoxy)phenyl]pyrazin-2-amine]: the Ki on human FLAP amounted to 0.122 µM. Besides, the IC50 in test [1] is 2.29 µM.

For the compound `Nc1cnc(-c2ccc(C3CCCCC3)c(Oc3nccc(N)n3)c2F)cn1` [Example 325, 2-(3-(5-Aminopyrazin-2-yl)-6-cyclohexyl-2-fluorophenoxy)pyrimidin-4-amine], the Ki on human FLAP is 0.0095 µM. The IC50 in test [1] was determined as 0.0527 µM.

For the compound `CS(=O)(=O)c1ccc(Oc2c(C3CCC3)ccc(-c3cnc(N)cn3)c2F)nc1` [Example 239, 5-(4-cyclobutyl-2-fluoro-3-((5-(methylsulfonyl)pyridin-2-yl)oxy)phenyl)pyrazin-2-amine], on human FLAP, the Ki worked out at 0.0083 µM. The half-inhibitory concentration (IC50) in test [1] was 0.197 µM.

Consider `Nc1cnc(-c2ccc(C3CC3)c(Oc3ncccn3)c2F)cn1` [Example 278, 5-[4-Cyclopropyl-2-fluoro-3-(pyrimidin-2-yloxy)phenyl]pyrazin-2-amine], for which the Ki on human FLAP turned out to be 0.1 µM. Besides, the IC50 in test [1] amounted to 0.216 µM.

In the case of `Cc1ccnc(Oc2c(C3CCC3)ccc(-c3cnc(N)nc3)c2F)n1` [Example 163, 5-{4-Cyclobutyl-2-fluoro-3-[(4-methylpyrimidin-2-yl)oxy]phenyl}pyrimidin-2-amine], the Ki at human FLAP amounted to 0.0704 µM. For the same compound, the IC50 in test [1] stood at 0.494 µM.

As to `Nc1cnc(-c2ccc(C3CCC3)c(Oc3ccc(C(F)(F)F)cn3)c2F)cn1` [Example 113, 5-(4-Cyclobutyl-2-fluoro-3-{[5-(trifluoromethyl)pyridin-2-yl]oxy}phenyl)pyrazin-2-amine], the Ki at human FLAP is 0.027 µM. In addition, the IC50 in test [1] is 0.608 µM.

As to `NC(=O)c1ccnc(Oc2c(C3CCC3)ccc(-c3cnc(N)cn3)c2F)n1` [Example 157, 2-[3-(5-Aminopyrazin-2-yl)-6-cyclobutyl-2-fluorophenoxy]pyrimidine-4-carboxamide], the Ki at human FLAP was 0.0206 µM. The IC50 in test [1] was 0.109 µM.

With `Nc1cnc(-c2ccc(C3CCC3)c(Oc3nc(N)c4ccccc4n3)c2F)cn1` [Example 272, 2-[3-(5-Aminopyrazin-2-yl)-6-cyclobutyl-2-fluorophenoxy]quinazolin-4-amine], the Ki on human FLAP was 0.0005 µM. Moreover, in test [1], the IC50 was determined as 0.0419 µM.

Consider `CN(C)c1cc(Oc2c(C3CCC3)ccc(-c3cnc(N)cn3)c2F)ncn1` [Example 237, 6-(3-(5-Aminopyrazin-2-yl)-6-cyclobutyl-2-fluorophenoxy)-N,N-dimethylpyrimidin-4-amine], for which the Ki at human FLAP worked out at 0.0033 µM. The IC50 in test [1] stood at 0.0847 µM.

Regarding `Nc1cnc(-c2ccc(C3CCC3)c(Oc3ncc(-c4cnc(N)nc4)cn3)c2F)cn1` [Example 313, 2′-[3-(5-Aminopyrazin-2-yl)-6-cyclobutyl-2-fluorophenoxy]-5,5′-bipyrimidin-2-amine], the Ki at human FLAP came to 0.0024 µM. Besides, the IC50 in test [1] is 0.027 µM.

As for `Nc1ccnc(Oc2c(C3CCC3)ccc(-c3cnc4c(c3)OCCN4)c2F)n1` [Example 226, 2-(6-cyclobutyl-3-(3,4-dihydro-2H-pyrido[3,2-b][1,4]oxazin-7-yl)-2-fluorophenoxy)pyrimidin-4-amine], the Ki at human FLAP is 0.0014 µM. The IC50 in test [1] was 0.0901 µM.

Regarding `Nc1cnc(-c2ccc(C3CCC3)c(OCc3ccc(Cl)cn3)c2F)cn1` [Example 289, 5-{3-[(5-Chloropyridin-2-yl)methoxy]-4-cyclobutyl-2-fluorophenyl}pyrazin-2-amine trifluoroacetic acid salt], the inhibition constant (Ki) at human FLAP is 0.229 µM. In addition, the IC50 in test [1] is 0.782 µM.

As for `Nc1cnc(-c2ccc(C3CCC3)c(OCC(O)Cn3c(=O)[nH]c4ccccc43)c2F)cn1` (racemic) [Example 311, racemic 1-{3-[3-(5-Aminopyrazin-2-yl)-6-cyclobutyl-2-fluorophenoxy]-2-hydroxypropyl}-1,3-dihydro-2H-benzimidazol-2-one], the Ki at human FLAP is 0.0081 µM. Besides, the IC50 in test [1] was 0.11 µM.

As for `Cc1cc(C)nc(Oc2c(C3CCC3)ccc(-c3cnc(N)cn3)c2F)n1` [Example 89, 5-{4-Cyclobutyl-3-[(4,6-dimethylpyrimidin-2-yl)oxy]-2-fluorophenyl}pyrazin-2-amine], the Ki at human FLAP was determined as 0.004 µM. Besides, the IC50 in test [1] was determined as 0.0222 µM.

Regarding `Nc1cnc(-c2ccc(C3CCC3)c(OCc3ccc(C(=O)O)cc3)c2F)cn1` [Example 5, 4-{[3-(5-Aminopyrazin-2-yl)-6-cyclobutyl-2-fluorophenoxy]methyl}benzoic acid], on human FLAP, the Ki is 0.011 µM. The IC50 in test [1] turned out to be 0.263 µM.

Take `COc1nc(N)cc(Oc2c(C3CCC3)ccc(-c3cnc(N)cn3)c2F)n1` [Example 100, 6-[3-(5-Aminopyrazin-2-yl)-6-cyclobutyl-2-fluorophenoxy]-2-methoxypyrimidin-4-amine]: the Ki at human FLAP stood at 0.001 µM. Also, the IC50 in test [1] came to 0.0126 µM.

Turning to `Cc1cc(N)nc(Oc2c(C3CCC3)ccc(-c3cnc(N)cn3)c2F)n1` [Example 86, 2-[3-(5-Aminopyrazin-2-yl)-6-cyclobutyl-2-fluorophenoxy]-6-methylpyrimidin-4-amine], the Ki at human FLAP was 0.005 µM. The IC50 in test [1] is 0.0351 µM.

For `Nc1cnc(-c2ccc(C3CCC3)c(Oc3cc(N)ncn3)c2F)cn1` [Example 136, 6-[3-(5-Aminopyrazin-2-yl)-6-cyclobutyl-2-fluorophenoxy]pyrimidin-4-amine], at human FLAP, the Ki came to 0.0035 µM. Besides, the IC50 in test [1] was 0.0459 µM.

With `CC(C)(C)OC(=O)NCCNc1ccnc(Oc2c(C3CCC3)ccc(-c3cnc(N)cn3)c2F)n1` [Example 149, tert-Butyl [2-({2-[3-(5-aminopyrazin-2-yl)-6-cyclobutyl-2-fluorophenoxy]pyrimidin-4-yl}amino)ethyl]carbamate], on human FLAP, the Ki is 0.0013 µM. For the same compound, in test [1], the IC50 came out at 0.112 µM.

In the case of `Nc1cnc(-c2ccc(C3CCC3)c(Oc3ncccc3Cl)c2F)cn1` [Example 122, 5-{3-[(3-Chloropyridin-2-yl)oxy]-4-cyclobutyl-2-fluorophenyl}pyrazin-2-amine], the Ki at human FLAP was 0.004 µM. Further, in test [1], the IC50 came out at 0.46 µM.

`Nc1cnc(-c2ccc(C3CCC3)c(OCc3nc(C(=O)O)co3)c2F)cn1` [Example 282, 2-{[3-(5-Aminopyrazin-2-yl)-6-cyclobutyl-2-fluorophenoxy]methyl}-1,3-oxazole-4-carboxylic acid trifluoroacetic acid salt]: the inhibition constant (Ki) at human FLAP amounted to 0.0294 µM. The IC50 in test [1] was > 10 µM.

`Nc1cnc(-c2ccc(C3CCC3)c(OCCNc3ccncn3)c2F)cn1` [Example 297, N-{2-[3-(5-Aminopyrazin-2-yl)-6-cyclobutyl-2-fluorophenoxy]ethyl}pyrimidin-4-amine]: the Ki at human FLAP was 0.0144 µM. In addition, in test [1], the IC50 came out at 0.263 µM.

For `N#Cc1nc(N)cnc1-c1ccc(C2CCC2)c(OCc2cccc(C(=O)O)c2)c1F` [Example 174, 3-{[3-(5-Amino-3-cyanopyrazin-2-yl)-6-cyclobutyl-2-fluorophenoxy]methyl}benzoic acid], the Ki at human FLAP was 0.0054 µM. Further, the IC50 in test [1] was determined as 1.21 µM.
